Test system: M17_3TAU(P301L) cells
Assay: TAU-induced cytotoxicity (LDH) in the neuroblastoma tauopathy model
Type: cell-based
Conditions: Homo sapiens, 168 h, inhibition of TAU-induced toxicity, 7 days retinoic acid differentiation, LDH readout
Excerpt: A TAU expression plasmid was constructed by sub-cloning the cDNA encoding for human TAU-P301L protein, wherein proline at position 301 is substituted by a leucine residue, into mammalian expression vector pcDNA3.1 resulting in the plasmid pcDNA3.1-TAUP301L. Plasmids pcDNA3.1 and pcDNA3.1-TAU P301L were transfected into human neuroblastoma cells (BE-M17; ATCC No. CRL-2267™) using lipofectamine reagent and subsequently, independent clonal cell lines with the plasmids stably integrated into the genome were selected by antibiotic resistance selection (Geneticin (G418)), resulting in cell lines M17.pcDNA3 and M17_3TAUP301L. Expression of the TAUP301 L gene in the M17_3TAUP301 L cells was confirmed by Western blot analysis.
Differentiation of the cells with RA leads to phosphorylation and subsequent aggregation of TAU, inducing a tauopathy in these cells. Cytotoxicity of cells was measured by quantification of lactate dehydrogenase (LDH) levels. In dead cells LDH is leaked out of the cells into the medium due to a loss of plasma-membrane integrity.
Briefly, 3 days preceding the experiment pre-cultures of M17.pcDNA3 and M17_3TAU(P301L) cells were prepared, starting from a stock culture, at a density of 50.000-100.000 cells/cm2 in detection medium (Optimem Reduced Serum without phenol red (Gibco, Cat. 31985-047) supplemented with 1% fetal calf serum (FCS), 1 mM sodium pyruvate, 1×non-essential amino acids (NEAA), 500 μg/ml G418 and 0.5×antibiotic/antimycotic (ABAM)). At the day of the experiment these precultures were diluted to ˜[…] in detection medium without FCS and 60 μL of this suspension is dispensed per well into a 96-well microtiter plate. After 3 hours of incubation at 37° C./5% C02 an equal volume of detection medium containing 2.5 μM RA was added and subsequently incubated for 7 days at 37° C./5% CO2. After 7 days, LDH activity was determined using the Promega Cytotox 96 Non-Radioactive cytotoxicity assay (Cat. G1780), according the manufacturer's instructions. Cytotoxicity is measured as the ratio of LDH increase in the supernatant divided by the LDH increase in the total cell suspension (sum of the LDH measured in cells and supernatant). Toxicity was determined after 7 days of differentiation with retinoic acid in M17_3TAU(P301 L) cells compared to M17.pcDNA3 cells.
The M17_3TAU(P301L) cell line makes it possible to assess the ability of novel compounds to inhibit TAU-induced cytotoxicity. […] Compounds were tested for their ability to hamper TAU-induced toxicity at different concentrations, ranging from low non-effective concentrations to high potent concentrations. Afterwards, the dose-dependent inhibition curve was used to calculate their EC50 (Table 3B).

`O=C(Cc1ccc(F)cc1)N1CC2(CN(CCCc3ccccc3)C2)C1` [Cpd B001, 2-(4-fluorophenyl)-1-(6-(3-phenylpropyl)-2,6-diazaspiro[3.3]heptan-2-yl)ethanone] showed an EC50 of 0.0107 µM.

Compound `O=C(Cc1ccc(F)cc1)N1CC2(CN(Cc3ccccc3)C2)C1` [Cpd B002, 1-(6-benzyl-2,6-diazaspiro[3.3]heptan-2-yl)-2-(4-fluorophenyl)ethanone] has an EC50 of 0.00952 µM.

`O=C(Cc1ccc(Cl)cc1)N1CC2(CN(Cc3ccccc3)C2)C1` [Cpd B003, 1-(6-benzyl-2,6-diazaspiro[3.3]heptan-2-yl)-2-(4-chlorophenyl)ethanone] showed an EC50 of 0.00697 µM.

`O=C(Cc1ccc(Cl)cc1)N1CC2(CN(Cc3ccc(Cl)cc3)C2)C1` [Cpd B004, 1-(6-(4-chlorobenzyl)-2,6-diazaspiro[3.3]heptan-2-yl)-2-(4-chlorophenyl)ethanone] gave an EC50 of 0.00286 µM.

With `COc1cc(CN2CC3(C2)CN(C(=O)Cc2ccc(Cl)cc2)C3)ccn1` [Cpd B005, 2-(4-chlorophenyl)-1-(6-((2-methoxypyridin-4-yl)methyl)-2,6-diazaspiro[3.3]heptan-2-yl)ethanone] the EC50 was 0.162 µM.

Work on `Cc1ccccc1CN1CC2(C1)CN(C(=O)Cc1ccc(Cl)cc1)C2` [Cpd B006, 2-(4-chlorophenyl)-1-(6-(2-methylbenzyl)-2,6-diazaspiro[3.3]heptan-2-yl)ethanone] yielded an EC50 of 0.00291 µM.

For `O=C(Cc1ccc(F)c(F)c1)N1CC2(CN(Cc3ccccc3)C2)C1` [Cpd B007, 1-(6-benzyl-2,6-diazaspiro[3.3]heptan-2-yl)-2-(3,4-difluorophenyl)ethanone], the EC50 was 0.00416 µM.

Compound `COc1cccc(CN2CC3(C2)CN(C(=O)Cc2ccc(F)cc2)C3)c1` [Cpd B008, 2-(4-Fluoro-phenyl)-1-[6-(3-methoxy-benzyl)-2,6-diaza-spiro[3.3]hept-2-yl]-ethanone] has an EC50 of 0.004 µM.

With `Cc1ccc(CN2CC3(C2)CN(C(=O)Cc2ccc(F)cc2)C3)cc1` [Cpd B009, 2-(4-Fluoro-phenyl)-1-[6-(4-methyl-benzyl)-2,6-diaza-spiro[3.3]hept-2-yl]-ethanone] the EC50 was 0.00106 µM.

In the case of `O=C(Cc1ccc(F)cc1)N1CC2(CN(Cc3ccccn3)C2)C1` [Cpd B010, 2-(4-Fluoro-phenyl)-1-(6-pyridin-2-ylmethyl-2,6-diaza-spiro[3.3]hept-2-yl)-ethanone], the EC50 is reported as 0.0475 µM.

With `O=C(Cc1ccc(F)cc1)N1CC2(CN(Cc3cccc(Cl)c3)C2)C1` [Cpd B011, 1-[6-(3-Chloro-benzyl)-2,6-diaza-spiro[3.3]hept-2-yl]-2-(4-fluoro-phenyl)-ethanone] the EC50 was 0.00207 µM.

`NC(=O)c1cccc(CN2CC3(C2)CN(C(=O)Cc2ccc(F)cc2)C3)c1` [Cpd B012, 3-{6-[2-(4-Fluoro-phenyl)-acetyl]-2,6-diaza-spiro[3.3]hept-2-ylmethyl}-benzamide] gave an EC50 of 0.0452 µM.

`O=C(Cc1ccc(F)cc1)N1CC2(CN(Cc3ccccc3OC(F)(F)F)C2)C1` [Cpd B013, 2-(4-Fluoro-phenyl)-1-[6-(2-trifluoromethoxy-benzyl)-2,6-diaza-spiro[3.3]hept-2-yl]-ethanone] showed an EC50 of 0.00627 µM.

Compound `COC(=O)c1ccc(CN2CC3(C2)CN(C(=O)Cc2ccc(F)cc2)C3)cc1` [Cpd B014, 4-{6-[2-(4-Fluoro-phenyl)-acetyl]-2,6-diaza-spiro[3.3]hept-2-ylmethyl}-benzoic acid methyl ester] has an EC50 of 0.00092 µM.

Work on `CC(c1cccc(C(F)(F)F)c1)N1CC2(CN(C(=O)Cc3ccc(F)cc3)C2)C1` (stereo not shown) [Cpd B015, 2-(4-Fluoro-phenyl)-1-{6-[1-(3-trifluoromethyl-phenyl)-ethyl]-2,6-diaza-spiro[3.3]hept-2-yl}-ethanone] yielded an EC50 of 0.00954 µM.

With `CC(c1ccccc1)N1CC2(CN(C(=O)Cc3ccc(F)cc3)C2)C1` (stereo not shown) [Cpd B016, 2-(4-Fluoro-phenyl)-1-[6-(1-phenyl-ethyl)-2,6-diaza-spiro[3.3]hept-2-yl]-ethanone] the EC50 was 0.00551 µM.

Compound `Cc1cccc(CN2CC3(C2)CN(C(=O)Cc2ccc(F)cc2)C3)n1` [Cpd B017, 2-(4-Fluoro-phenyl)-1-[6-(6-methyl-pyridin-2-ylmethyl)-2,6-diaza-spiro[3.3]hept-2-yl]-ethanone] has an EC50 of 0.0267 µM.

Work on `O=C(Cc1ccc(F)cc1)N1CC2(CN(Cc3ccccc3Cl)C2)C1` [Cpd B018, 1-[6-(2-Chloro-benzyl)-2,6-diaza-spiro[3.3]hept-2-yl]-2-(4-fluoro-phenyl)-ethanone] yielded an EC50 of 0.00097 µM.

Compound `Cc1nc(CN2CC3(C2)CN(C(=O)Cc2ccc(F)cc2)C3)cs1` [Cpd B019, 2-(4-Fluoro-phenyl)-1-[6-(2-methyl-thiazol-4-ylmethyl)-2,6-diaza-spiro[3.3]hept-2-yl]-ethanone] has an EC50 of 0.0718 µM.

Work on `Cn1ccnc1CN1CC2(C1)CN(C(=O)Cc1ccc(F)cc1)C2` [Cpd B020, 2-(4-Fluoro-phenyl)-1-[6-(1-methyl-1H-imidazol-2-ylmethyl)-2,6-diaza-spiro[3.3]hept-2-yl]-ethanone] yielded an EC50 of 0.422 µM.

With `Cc1cc(CN2CC3(C2)CN(C(=O)Cc2ccc(F)cc2)C3)no1` [Cpd B021, 2-(4-Fluoro-phenyl)-1-[6-(5-methyl-isoxazol-3-ylmethyl)-2,6-diaza-spiro[3.3]hept-2-yl]-ethanone] the EC50 was 0.167 µM.

Work on `O=C(Cc1ccc(F)cc1)N1CC2(CN(Cc3cscn3)C2)C1` [Cpd B022, 2-(4-Fluoro-phenyl)-1-(6-thiazol-4-ylmethyl-2,6-diaza-spiro[3.3]hept-2-yl)-ethanone] yielded an EC50 of 0.149 µM.

`O=C(Cc1ccc(F)cc1)N1CC2(CN(CCc3cccc(C(F)(F)F)c3)C2)C1` [Cpd B023, 2-(4-Fluoro-phenyl)-1-{6-[2-(3-trifluoromethyl-phenyl)-ethyl]-2,6-diaza-spiro[3.3]hept-2-yl}-ethanone] was tested, and the EC50 was 0.0186 µM.

Work on `O=C(Cc1ccc(F)cc1)N1CC2(CN(CCc3cccc(F)c3)C2)C1` [Cpd B024, 2-(4-Fluoro-phenyl)-1-{6-[2-(3-fluoro-phenyl)-ethyl]-2,6-diaza-spiro[3.3]hept-2-yl}-ethanone] yielded an EC50 of 0.0267 µM.

Work on `COc1ccc(CCN2CC3(C2)CN(C(=O)Cc2ccc(F)cc2)C3)cc1` [Cpd B025, 2-(4-Fluoro-phenyl)-1-{6-[2-(4-methoxy-phenyl)-ethyl]-2,6-diaza-spiro[3.3]hept-2-yl}-ethanone] yielded an EC50 of 0.0179 µM.

With `Cc1ccc(CCN2CC3(C2)CN(C(=O)Cc2ccc(F)cc2)C3)cc1` [Cpd B026, 2-(4-Fluoro-phenyl)-1-[6-(2-p-tolyl-ethyl)-2,6-diaza-spiro[3.3]hept-2-yl]-ethanone] the EC50 was 0.0261 µM.

In the case of `O=C(Cc1ccc(F)cc1)N1CC2(CN(CCc3ccc(F)cc3)C2)C1` [Cpd B027, 2-(4-Fluoro-phenyl)-1-{6-[2-(4-fluoro-phenyl)-ethyl]-2,6-diaza-spiro[3.3]hept-2-yl}-ethanone], the EC50 is reported as 0.0217 µM.

For `Cc1cccc(CCN2CC3(C2)CN(C(=O)Cc2ccc(F)cc2)C3)c1` [Cpd B028, 2-(4-Fluoro-phenyl)-1-[6-(2-m-tolyl-ethyl)-2,6-diaza-spiro[3.3]hept-2-yl]-ethanone], the EC50 was 0.0129 µM.

In the case of `CC(C)(C(=O)c1ccccc1)N1CC2(CN(C(=O)Cc3ccc(F)cc3)C2)C1` [Cpd B029, 2-{6-[2-(4-Fluoro-phenyl)-acetyl]-2,6-diaza-spiro[3.3]hept-2-yl}-2-methyl-1-phenyl-propan-1-one], the EC50 is reported as 0.0083 µM.

In the case of `O=C(Cc1ccc(F)cc1)N1CC2(CN(CCc3ccccc3)C2)C1` [Cpd B030, 2-(4-Fluoro-phenyl)-1-(6-phenethyl-2,6-diaza-spiro[3.3]hept-2-yl)-ethanone], the EC50 is reported as 0.0377 µM.

`COc1cccc(CN2CC3(C2)CN(C(=O)Cc2ccc(Cl)cc2)C3)c1` [Cpd B031, 2-(4-chlorophenyl)-1-(6-(3-methoxybenzyl)-2,6-diazaspiro[3.3]heptan-2-yl)ethanone] showed an EC50 of 0.00201 µM.

With `O=C(Cc1ccc(Cl)cc1)N1CC2(CN(Cc3ccccn3)C2)C1` [Cpd B032, 2-(4-chlorophenyl)-1-(6-(pyridin-2-ylmethyl)-2,6-diazaspiro[3.3]heptan-2-yl)ethanone] the EC50 was 0.0485 µM.

`O=C(Cc1ccc(Cl)cc1)N1CC2(CN(Cc3cccc(Cl)c3)C2)C1` [Cpd B033, 1-(6-(3-chlorobenzyl)-2,6-diazaspiro[3.3]heptan-2-yl)-2-(4-chlorophenyl)ethanone] showed an EC50 of 0.00246 µM.

Work on `O=C(Cc1ccc(Cl)cc1)N1CC2(CN(Cc3ccccc3OC(F)(F)F)C2)C1` [Cpd B034, 2-(4-chlorophenyl)-1-(6-(2-(trifluoromethoxy)benzyl)-2,6-diazaspiro[3.3]heptan-2-yl)ethanone] yielded an EC50 of 0.00604 µM.

Source: patent US20250388592A1 (REMYND N.V., priority 2022, published 2025)
